{
  "source": "patent US20260144266A1",
  "about": "“METHODS OF TREATING PLANT-BASED PRODUCTS TO REDUCE MICROBE PROLIFERATION AND EXTEND SHELF LIFE” (Ascribe Bioscience Inc., priority 2022, published 2026)",
  "system": "Store-bought Strawberries",
  "assay": "Strawberry shelf-life / spoilage test after ascaroside treatment",
  "settings": "berries dipped into 100 nM water solution",
  "method": "Example 1: treatment of fruit with ascarosides extends shelf-life/delays spoilage. Store-bought Strawberries were treated with ascaroside (ascr #18) by dipping the berries into a 100 nM water solution of the ascaroside or a mock solution lacking ascaroside. Five berries from each treatment group were placed in glass dishes and left uncovered on a table indoors at ambient temperature and monitored for one week. Fruit weight was measured at 0, 1, 3, 4, 5, 6, and 7 days post-treatment. The ascaroside treated berries retained approximately 25% more of their original mass than the untreated group indicating a reduced spoilage rate and potential for increased shelf life. […] Example 2: treatment of fruit with coating compositions containing ascarosides. Freshly harvested, non-coated, apples were obtained from a supermarket. These were washed and experimental coatings were applied.",
  "data": [
    {"smiles": "CC1OC(O[C@H](C)CCCCCCCCC(=O)O)C(O)CC1O", "note": "(some centres unmarked) [ascr #18]", "values": [
      {"measurement": "fruit quality by appearance (photographs, FIG. 1b)", "setting": "photographs 0, 3 and 5 days post-treatment, vs untreated fruit", "result": "maintained higher quality than the untreated fruit"},
      {"measurement": "original mass retained, more than the untreated group (normalized fruit mass, FIG. 1a)", "setting": "uncovered at ambient temperature, monitored for seven days, vs mock solution", "result": "approximately 25%"}
    ]}
  ]
}
